The values that follow come from ChEMBL document CHEMBL1201862, “PubChem BioAssay data set” (2004).

Test systems include A549; EKVX; HCT-116; HCT-15; HL-60; HOP-92; HT-29; K562; KM12; NCI-H226; NCI-H522; OVCAR-4; OVCAR-5; RXF 393; SF-268; SK-MEL-5; SK-OV-3; U-251; UACC-257; UO-31.
Holding throughout (assay): DTP human tumour cell line panel, 48 h

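Cultured in 96-well plates, cells were exposed to test compound for 48 hours across five concentrations. GI50: concentration for 50% inhibition of growth.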 The source made the active and inactive calls. Cut-off read from the data, not from the text of the source: active = GI50 up to about 1.1 µM and inactive = higher.

As for `O=C1c2cccc3cc4ccccc4c(c23)C(=O)N1CCNCCN1C(=O)c2cccc3cc4ccccc4c(c23)C1=O`, the GI50 – broadly, the concentration giving 50% growth inhibition – in the assay with A549 is 0.186 µM (active); in the assay on EKVX, 0.587 µM (active); in the assay on HCT-116, 0.415 µM (active); in the assay with HCT-15, 0.309 µM; in the assay on HL-60, 0.178 µM (active); with HOP-92, 0.449 µM (active). For the same compound, the 50% growth inhibitory concentration (GI50) in the assay with HT-29 is 0.351 µM (active); in the assay on K562, 0.301 µM (active); in the assay with KM12, 3.93 µM (inactive); in the assay on NCI-H226, 2.21 µM (inactive); with NCI-H522 it was 1.53 µM (inactive); with OVCAR-4 it was 0.625 µM (active). Also, the concentration for 50% growth inhibition (GI50) is 0.406 µM (active) with OVCAR-5; 0.525 µM (active) in the assay with RXF 393; 1.22 µM (inactive) in the assay with SF-268; 0.504 µM (active) in the assay on SK-MEL-5; 1.34 µM (inactive) in the assay on SK-OV-3; 0.282 µM (active) in the assay with U-251. The GI50 in the assay with UACC-257 was 1.27 µM (inactive); in the assay with UO-31, 0.277 µM (active).
Regarding `NC(=S)N/N=C/c1ccc(OC(=O)COc2ccccc2Cl)cn1`, the GI50 in the assay with A549 was 53.6 µM (inactive); in the assay with EKVX it was 56.4 µM (inactive); in the assay on HCT-116, 26.5 µM (inactive); in the assay on HCT-15, 39.5 µM; in the assay with HL-60 it was 18.4 µM (inactive); in the assay on HOP-92, 12.9 µM (inactive). In addition, the GI50 in the assay on HT-29 was 48 µM (inactive); in the assay with K562 it was 23.1 µM (inactive); in the assay with KM12 it was 75.7 µM (inactive); with NCI-H226, 26.5 µM (inactive); with NCI-H522 it was 18.1 µM (inactive); in the assay with OVCAR-4, 32.4 µM (inactive). The GI50 with OVCAR-5 was 44.4 µM (inactive); in the assay on RXF 393 it was > 37.5 µM (inactive); in the assay on SF-268 it was 17.9 µM (inactive); with SK-MEL-5 it was 24.8 µM (inactive); in the assay on SK-OV-3, > 67 µM (inactive); with U-251, 25.1 µM (inactive). The GI50 in the assay with UACC-257 was 50.1 µM (inactive); with UO-31, 36.8 µM (inactive).
On to `CSc1sc(=S)sc1SC`, for which the GI50 with A549 was > 100 µM (inactive); in the assay with EKVX, > 100 µM (inactive); in the assay on HCT-116 it was > 100 µM (inactive); with HCT-15, over 100 µM; in the assay on HL-60 it was > 31.6 µM (inactive); in the assay on HOP-92, > 100 µM (inactive). Besides, the GI50 in the assay with HT-29, in the assay on K562, in the assay with KM12, with NCI-H226, in the assay on NCI-H522 and in the assay on OVCAR-4 was > 100 µM (inactive) each time. For the same compound, the GI50 with OVCAR-5, in the assay on RXF 393, in the assay on SF-268, in the assay on SK-MEL-5, in the assay with SK-OV-3 and with U-251 was > 100 µM (inactive) throughout. Further, the GI50 in the assay on UACC-257 and in the assay on UO-31 was > 100 µM (inactive) in each case.
On to `CC(=O)N/C(=C\c1ccc(/C=C(\NC(C)=O)C2=NC3C(=O)c4ccccc4C(=O)C3N2)cc1)C1=NC2C(=O)c3ccccc3C(=O)C2N1` (stereo not given), for which the GI50 was 2.34 µM (inactive) with A549; 15.6 µM (inactive) with EKVX; 14.4 µM (inactive) with HCT-116; 9.14 µM in the assay with HCT-15; 3.96 µM (inactive) in the assay on HL-60; 30.8 µM (inactive) in the assay on HOP-92. In addition, the GI50 with HT-29 is > 100 µM (inactive); with K562 it was 19.3 µM (inactive); in the assay on KM12, 3.63 µM (inactive); in the assay with NCI-H226, 15.4 µM (inactive); with NCI-H522 it was 7.69 µM (inactive); in the assay on OVCAR-4 it was > 100 µM (inactive). Moreover, the GI50 was 75 µM (inactive) with OVCAR-5; 13.2 µM (inactive) in the assay with RXF 393; 5.7 µM (inactive) in the assay with SF-268; 3.4 µM (inactive) in the assay on SK-MEL-5; 6.53 µM (inactive) with SK-OV-3; 9.98 µM (inactive) in the assay with U-251. The GI50 in the assay with UACC-257 is > 100 µM (inactive); in the assay with UO-31, 2.97 µM (inactive).
`C=C1C(=O)OC2CC(C)C3C4OC4C(O)C3(C)C(O)C12` (stereo not given): the GI50 was 53.5 µM (inactive) in the assay with A549; 20 µM (inactive) in the assay on EKVX; 15.6 µM (inactive) in the assay on HCT-116; 22.8 µM in the assay with HCT-15; 13.8 µM (inactive) with HL-60; 23.6 µM (inactive) with HOP-92. Also, the GI50 with HT-29 was 27.5 µM (inactive); in the assay with K562, 20.6 µM (inactive); with KM12, 23.5 µM (inactive); with NCI-H226 it was 30 µM (inactive); in the assay with NCI-H522, 9.42 µM (inactive); in the assay with OVCAR-4, 26.5 µM (inactive). The GI50 is 64 µM (inactive) in the assay with OVCAR-5; 22.1 µM (inactive) with RXF 393; 23.8 µM (inactive) with SF-268; 38.5 µM (inactive) in the assay with SK-MEL-5; 44.9 µM (inactive) in the assay with SK-OV-3; 43.2 µM (inactive) with U-251. Further, the GI50 in the assay on UACC-257 was 37.8 µM (inactive); in the assay with UO-31 it was 80.2 µM (inactive).
For the compound `CCC1OC(=O)C(C)C(OC2CC(C)(O)C(O)C(C)O2)C(C)C(O)C(C)(O)CC(C)C(=O)C(C)C(O)C1C` (stereo not given), the GI50 was > 300 µM (inactive) in the assay with A549; > 300 µM (inactive) in the assay with EKVX; > 300 µM (inactive) in the assay on HCT-116; over 300 µM in the assay with HCT-15; > 300 µM (inactive) in the assay on HL-60; 30 µM (inactive) in the assay on HOP-92. The GI50 with HT-29 was > 300 µM (inactive); with K562, > 300 µM (inactive); with KM12, 225 µM (inactive); in the assay with NCI-H226, > 300 µM (inactive); in the assay with NCI-H522, > 300 µM (inactive); in the assay on OVCAR-4, > 300 µM (inactive). Moreover, the GI50 in the assay with OVCAR-5 is > 292 µM (inactive); with RXF 393, > 300 µM (inactive); in the assay with SF-268 it was > 300 µM (inactive); in the assay on SK-MEL-5 it was > 300 µM (inactive); in the assay on SK-OV-3 it was > 300 µM (inactive); in the assay with U-251, > 300 µM (inactive). The GI50 in the assay on UACC-257 and with UO-31 was > 300 µM (inactive) throughout.
As to `CCC/C=C/C=C\C(=O)O[C@@H]1[C@@H](C)[C@]2(O)[C@@H]3C=C(C)C(=O)[C@H]3CC(COC(C)=O)=C[C@H]2[C@@H]2C(C)(C)[C@]12OC(C)=O`, the GI50 with A549 is 4.59 µM (inactive); in the assay on EKVX, 49.9 µM (inactive); with HCT-116, 20.4 µM (inactive); with HCT-15, 28.6 µM; in the assay on HL-60, 2.33 µM (inactive); in the assay on HOP-92, 43.8 µM (inactive). The GI50 in the assay with HT-29 is 40 µM (inactive); in the assay on K562 it was 2.49 µM (inactive); in the assay on KM12 it was 47.9 µM (inactive); with NCI-H226 it was 46.6 µM (inactive); in the assay with NCI-H522 it was 27.7 µM (inactive); with OVCAR-4 it was 30.2 µM (inactive). The GI50 is 66.5 µM (inactive) with OVCAR-5; 47.5 µM (inactive) in the assay on RXF 393; 39.7 µM (inactive) in the assay with SF-268; 16.4 µM (inactive) with SK-MEL-5; 81.7 µM (inactive) in the assay with SK-OV-3; 17.6 µM (inactive) in the assay with U-251. In addition, the results for the GI50 with UACC-257 and in the assay with UO-31 were 42.9 µM (inactive) and 46.5 µM (inactive), respectively.
